According to ChEMBL document CHEMBL1201862, “PubChem BioAssay data set” (2004):
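Grown in 96-well plates, cells were treated for 48 hours with each compound at five concentrations. Insufficient inhibition: endpoint recorded as highest concentration tested. Abbreviation: GI50, concentration required for 50% inhibition of growth.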 The source made the active and inactive calls. No stated cut-off is given here; in the data, active = GI50 up to about 1.1 µM and inactive = higher.

Experiments:
Assay in all cases: NCI-60 cell line screen, 48 h
[1] = test system: 786-0
[2] = test system: A498
[3] = test system: HCC 2998
[4] = test system: HCT-15
[5] = test system: HT-29
[6] = test system: IGROV-1
[7] = test system: LOX IMVI
[8] = test system: M14
[9] = test system: MDA-MB-435
[10] = test system: MOLT-4
[11] = test system: Malme-3M
[12] = test system: OVCAR-3
[13] = test system: OVCAR-5
[14] = test system: OVCAR-8
[15] = test system: SF-268
[16] = test system: SF-539
[17] = test system: SN12C
[18] = test system: SNB-75
[19] = test system: T47D
[20] = test system: TK-10

Row | Compound | GI50 [1] | GI50 [2] | GI50 [3] | GI50 [4] [µM] | GI50 [5] | GI50 [6] | GI50 [7] | GI50 [8] | GI50 [9] | GI50 [10] | GI50 [11] | GI50 [12] | GI50 [13] | GI50 [14] | GI50 [15] | GI50 [16] | GI50 [17] | GI50 [18] | GI50 [19] | GI50 [20]
1 | CCCNC1=Nc2ccccc2[C@@H]2N(C)c3ccccc3C(C)C[C@]12C (stereo partly specified) | 18.5 µM (inactive) | 14.4 µM (inactive) | 11.1 µM (inactive) | 23.6 | 13.2 µM (inactive) | 17.8 µM (inactive) | 13.3 µM (inactive) | 17.7 µM (inactive) | 17.8 µM (inactive) | 18.1 µM (inactive) | 16.6 µM (inactive) | 19.2 µM (inactive) | 15.1 µM (inactive) | 14.7 µM (inactive) | 21.6 µM (inactive) | 16.4 µM (inactive) | 37.1 µM (inactive) | 15.7 µM (inactive) | 20 µM (inactive) | 16 µM (inactive)
2 | O=C1Nc2cc([N+](=O)[O-])ccc2N/C1=C/C(=O)c1ccc(Cl)cc1 | 3.13 µM (inactive) | 19.7 µM (inactive) | 23.6 µM (inactive) | 12.6 | 15.3 µM (inactive) | 12.3 µM (inactive) | 11.3 µM (inactive) | 12.9 µM (inactive) | 18.7 µM (inactive) | 17 µM (inactive) | 26.3 µM (inactive) | 20.1 µM (inactive) | 21.5 µM (inactive) | 8 µM (inactive) | 11.7 µM (inactive) | 10.7 µM (inactive) | – | 20.1 µM (inactive) | 13.5 µM (inactive) | 3.9 µM (inactive)
3 | Cc1nc(SCC(=O)Nc2ccccc2)c2sc(=S)n(-c3ccccc3)c2n1 | 8.79 µM (inactive) | > 10 µM (inactive) | > 10 µM (inactive) | > 10 | > 10 µM (inactive) | > 10 µM (inactive) | > 10 µM (inactive) | > 10 µM (inactive) | > 10 µM (inactive) | > 10 µM (inactive) | > 10 µM (inactive) | > 10 µM (inactive) | > 10 µM (inactive) | 9.12 µM (inactive) | > 10 µM (inactive) | 4.44 µM (inactive) | > 10 µM (inactive) | 3.19 µM (inactive) | > 10 µM (inactive) | > 10 µM (inactive)
4 | CC(OCc1ccccc1)C(NC(=O)C1CSSCC(NC(=O)C(Cc2ccccc2)NC(=O)OCc2ccccc2)C(=O)NC(Cc2ccccc2)C(=O)NC(Cc2cn(C=O)c3ccccc23)C(=O)NC(CCCCNC(=O)OCc2ccccc2)C(=O)NC(C(C)OCc2ccccc2)C(=O)N1)C(N)=O (stereo unspecified) | 24.9 µM (inactive) | 27.3 µM (inactive) | 7.43 µM (inactive) | 32 | 6.04 µM (inactive) | 22.6 µM (inactive) | 20 µM (inactive) | 21.1 µM (inactive) | 37.9 µM (inactive) | 2.81 µM (inactive) | 41.1 µM (inactive) | 14 µM (inactive) | 45 µM (inactive) | 75.2 µM (inactive) | > 61.8 µM (inactive) | > 100 µM (inactive) | > 100 µM (inactive) | 22.1 µM (inactive) | 13.3 µM (inactive) | 33.7 µM (inactive)
5 | CC(C)(CN1CCCCC1)C(=O)/C=C/c1ccc(/C=C/C(=O)C(C)(C)CN2CCCCC2)cc1 | 0.446 µM (active) | 1.6 µM (inactive) | 0.35 µM (active) | 0.204 | 0.198 µM (active) | 0.505 µM (active) | 0.268 µM (active) | 0.908 µM (active) | 0.421 µM (active) | 0.11 µM (active) | 0.871 µM (active) | 0.369 µM (active) | 0.726 µM (active) | 1.02 µM (active) | 0.413 µM (active) | 0.538 µM (active) | 0.208 µM (active) | 0.673 µM (active) | 0.525 µM (active) | 1.05 µM (active)
6 | Cc1ccsc1C(=S)Nc1ccc(Cl)c(C(=O)OC(C(C)C)C(C)C)c1 | 19.8 µM (inactive) | 27.2 µM (inactive) | 16.1 µM (inactive) | 23.6 | 17.4 µM (inactive) | 32.3 µM (inactive) | 18 µM (inactive) | 17.9 µM (inactive) | 17.7 µM (inactive) | 5.51 µM (inactive) | – | 14 µM (inactive) | 57.9 µM (inactive) | 21.3 µM (inactive) | 40.8 µM (inactive) | 39.6 µM (inactive) | 24.8 µM (inactive) | 24 µM (inactive) | 6.9 µM (inactive) | 38.1 µM (inactive)
7 | CC1=CCC[C@H]2[C@](C)(CC3=CC(=O)C4SCCSC4C3=O)[C@@H](C)CC[C@]12C (stereo partly specified) | 18.5 µM (inactive) | 16.1 µM (inactive) | 21.9 µM (inactive) | 23.3 | – | 32 µM (inactive) | 11.2 µM (inactive) | 14.3 µM (inactive) | 8.09 µM (inactive) | 21.6 µM (inactive) | – | 18.5 µM (inactive) | 18.6 µM (inactive) | 19.2 µM (inactive) | – | 21 µM (inactive) | 14.7 µM (inactive) | 27.7 µM (inactive) | > 100 µM (inactive) | –
8 | COC12C=CC(CC1)C(C)(C)C2OS(C)(=O)=O (stereo unspecified) | > 100 µM (inactive) | 97.1 µM (inactive) | > 100 µM (inactive) | > 100 | > 100 µM (inactive) | > 100 µM (inactive) | – | > 100 µM (inactive) | > 100 µM (inactive) | > 100 µM (inactive) | > 100 µM (inactive) | > 100 µM (inactive) | > 100 µM (inactive) | > 100 µM (inactive) | > 100 µM (inactive) | > 100 µM (inactive) | > 100 µM (inactive) | 38.3 µM (inactive) | > 100 µM (inactive) | > 100 µM (inactive)
9 | CCCN1CCC(=O)N(CCC(F)(F)C(F)(F)C(F)(F)C(F)(F)C(F)(F)C(F)(F)F)C1=S | > 100 µM (inactive) | > 100 µM (inactive) | 94.6 µM (inactive) | – | 90.6 µM (inactive) | > 100 µM (inactive) | – | > 100 µM (inactive) | > 100 µM (inactive) | > 100 µM (inactive) | > 100 µM (inactive) | > 100 µM (inactive) | > 100 µM (inactive) | > 100 µM (inactive) | > 100 µM (inactive) | > 100 µM (inactive) | > 100 µM (inactive) | > 100 µM (inactive) | > 100 µM (inactive) | > 100 µM (inactive)
10 | NNS(=O)(=O)c1ccc(/C=C2\NC(=O)NC2=O)cc1 | > 100 µM (inactive) | > 100 µM (inactive) | > 100 µM (inactive) | > 100 | > 100 µM (inactive) | > 100 µM (inactive) | > 100 µM (inactive) | > 100 µM (inactive) | > 100 µM (inactive) | > 100 µM (inactive) | > 100 µM (inactive) | > 100 µM (inactive) | 58.1 µM (inactive) | > 100 µM (inactive) | > 100 µM (inactive) | – | > 100 µM (inactive) | > 100 µM (inactive) | > 100 µM (inactive) | > 100 µM (inactive)
11 | COc1ccc(CCNC(=S)NC=C2C(=O)c3ccccc3C2=O)cc1OC | > 100 µM (inactive) | > 100 µM (inactive) | > 100 µM (inactive) | > 100 | > 100 µM (inactive) | > 100 µM (inactive) | > 100 µM (inactive) | > 100 µM (inactive) | > 100 µM (inactive) | 83.9 µM (inactive) | > 100 µM (inactive) | 0.0982 µM (active) | > 100 µM (inactive) | > 100 µM (inactive) | > 100 µM (inactive) | 0.433 µM (active) | > 100 µM (inactive) | 19.8 µM (inactive) | > 100 µM (inactive) | –
12 | Cn1c2ccccc2n2c(N=O)c(-c3ccccc3)nc12 | > 100 µM (inactive) | > 100 µM (inactive) | 11.7 µM (inactive) | 20.1 | 27.7 µM (inactive) | 25.5 µM (inactive) | > 100 µM (inactive) | 19.6 µM (inactive) | 38.8 µM (inactive) | 52.7 µM (inactive) | 69.5 µM (inactive) | 30.1 µM (inactive) | 59.3 µM (inactive) | > 100 µM (inactive) | > 100 µM (inactive) | – | 69.2 µM (inactive) | 5.08 µM (inactive) | 95.9 µM (inactive) | 51.8 µM (inactive)
13 | COC1CCC(OC2CC(C3(C)CCC4(CC(O)C(C)C(C(C)/C=C(\C)C(=O)C(C)CC(C)C(=O)O)O4)O3)OC3(OC(C4OC(O)(CO)C(C)CC4C)CC3C)C2C)OC1C (stereo unspecified) | < 0.0341 µM (active) | < 0.0169 µM (active) | < 0.0247 µM (active) | 0.0351 | < 0.0313 µM (active) | 1.79 µM (inactive) | < 0.0253 µM (active) | 0.122 µM (active) | 0.0923 µM (active) | < 0.01 µM (active) | < 0.0205 µM (active) | < 0.01 µM (active) | 2.99 µM (inactive) | < 0.0368 µM (active) | – | 0.0453 µM (active) | < 0.0319 µM (active) | 0.022 µM (active) | < 0.01 µM (active) | 0.646 µM (active)
14 | Clc1ccc(-c2nnc(-c3c(Cl)c(Cl)c(Cl)c(Cl)c3-c3nc4ccccc4[nH]3)o2)cc1 | 50.4 µM (inactive) | 82.8 µM (inactive) | 59 µM (inactive) | 55.3 | 98.9 µM (inactive) | 30.2 µM (inactive) | 71.9 µM (inactive) | 69.8 µM (inactive) | > 100 µM (inactive) | 27.2 µM (inactive) | > 100 µM (inactive) | 61.7 µM (inactive) | > 100 µM (inactive) | 48.2 µM (inactive) | > 100 µM (inactive) | > 100 µM (inactive) | 46.8 µM (inactive) | 68.7 µM (inactive) | 21 µM (inactive) | –
